Assay [1] has as its system Streptococcus pyogenes C203. Put plainly: MIC, standard agar-dilution assay. The class given is cell-based. The settings on record: Streptococcus pyogenes C203; agar dilution.
For assay [2], the system named is Staphylococcus aureus X400. Put plainly: MIC, standard agar-dilution assay. The settings on record: Staphylococcus aureus X400, methicillin-resistant strain. The class given is cell-based.
A further assay has as its system Staphylococcus aureus. Put plainly: ED50 in experimentally infected mice. The class given is in vivo. The conditions noted are these: mice infected with Staphylococcus aureus; administered subcutaneously 1 and 4 hours postinfection.
For assay [3], the system named is Staphylococcus aureus V41. Put plainly: MIC, standard agar-dilution assay. The class given is cell-based. The conditions noted are these: Staphylococcus aureus V41, penicillin-resistant strain; agar dilution.
The test system of assay [4] is Staphylococcus aureus X1.1. Put plainly: MIC, standard agar-dilution assay. The format is cell-based. The conditions noted are these: Staphylococcus aureus X1.1; agar dilution. (In agar dilution the substance is mixed into plates at graded concentrations.)
Assay [5] concerns Haemophilus influenzae C.L. In words: MIC, standard agar-dilution assay. The class given is cell-based. The conditions noted are these: ampicillin-sensitive strain.
Assay [6] deals with Staphylococcus aureus S13E. The format is cell-based. The conditions noted are these: agar dilution.
Assay [7] has as its system Streptococcus Group D X66. Put plainly: MIC, standard agar-dilution assay. The format is cell-based. The conditions noted are these: Streptococcus Group D X66; agar dilution.
Assay [8] relates to Staphylococcus epidermidis EPI2. Put plainly: MIC, standard agar-dilution assay. The format is cell-based.
For a further assay, the system named is Streptococcus pneumoniae. In words: ED50 in experimentally infected mice. The class given is in vivo. The settings on record: mice infected with Streptococcus pneumoniae; administered subcutaneously 1 and 4 hours postinfection. On the procedure: (§1) Some of the derivatives of this invention have shown in vivo antimicrobial activity against experimentally-induced infections in laboratory animals. When two doses of test compound were administered to experimentally infected mice, the activity observed was measured as an ED50 value [effective dose in mg/kg to protect 50% of the test animals: see Warren Wick, et al., J. Bacteriol. 81, 233-235 (1961)].
(§2) ^a mg/kg × 2; administered subcutaneously 1 and 4 hours

For a further assay, the system named is Streptococcus pyogenes. In words: ED50 in experimentally infected mice. The settings on record: mice infected with Streptococcus pyogenes; administered subcutaneously 1 and 4 hours postinfection. The format is in vivo. The method, then:
as §1, §2

Another assay has as its system Streptococcus Group 9960. Put plainly: MIC, standard agar-dilution assay. The conditions noted are these: Streptococcus Group 9960; agar dilution. The format is cell-based.
The test system of assay [9] is Haemophilus influenzae 76. In words: MIC, standard agar-dilution assay. The format is cell-based. The settings on record: Haemophilus influenzae 76, ampicillin-resistant strain.
Assay [10] relates to Streptococcus pneumoniae Park I. The format is cell-based. The conditions noted are these: agar dilution.
Assay [11] has as its system Staphylococcus epidermidis EPI1. The class given is cell-based. The conditions noted are these: Staphylococcus epidermidis EPI1; agar dilution.

Regarding “N--[4-(N,N--dimethylamino)benzoyl]A41030A [Example 18]”, the MIC in [1] was 1 µg/mL; in assay [2] it was 0.5 µg/mL; in assay [3] it was 0.5 µg/mL; in assay [4], 0.25 µg/mL; in [5], “-- (Compound not active at less than 128 mcg/ml)”; in assay [6] it was 0.25 µg/mL. For the same substance, the MIC in assay [7] is 1 µg/mL; in assay [8], 0.5 µg/mL; against Streptococcus Group 9960, 2 µg/mL; in [9], 64 µg/mL; in assay [10], 0.5 µg/mL; in assay [11], 0.25 µg/mL. Also, the ED50 was 0.46 mg/kg × 2 in the assay on Staphylococcus aureus, above 10 mg/kg × 2 in the assay on Streptococcus pneumoniae and above 10 mg/kg × 2 with Streptococcus pyogenes.
On to N--(nonanoyl)A47934 [Example 25], for which the MIC in [1] stood at 0.5 µg/mL; in [2], 0.25 µg/mL; in assay [3], 0.125 µg/mL; in [4] it was 0.125 µg/mL; in assay [5], 8 µg/mL; in assay [6], 0.125 µg/mL. For the same substance, the MIC was 0.25 µg/mL in [7]; 0.125 µg/mL in [8]; 0.25 µg/mL against Streptococcus Group 9960; 8 µg/mL in assay [9]; 0.25 µg/mL in assay [10]; 0.06 µg/mL in assay [11]. Further, the ED50 with Staphylococcus aureus is reported as below 0.31 mg/kg × 2; with Streptococcus pneumoniae, above 10 mg/kg × 2; with Streptococcus pyogenes, above 10 mg/kg × 2.
For N--(L-phenylalanyl)A47934 [Example 24], the MIC in assay [1] is 0.25 µg/mL; in assay [2], 0.25 µg/mL; in assay [3], 0.06 µg/mL; in [4], 0.06 µg/mL; in assay [5], 4 µg/mL; in assay [6], 0.06 µg/mL. In addition, the MIC is 0.5 µg/mL in assay [7]; 0.25 µg/mL in [8]; 1 µg/mL with Streptococcus Group 9960; 4 µg/mL in assay [9]; 0.06 µg/mL in assay [10]; 0.125 µg/mL in assay [11]. For the same substance, in the assay with Staphylococcus aureus, the ED50 is on record as below 0.31 mg/kg × 2.
Turning to “N--(3,5-dichlorobenzoyl)A35512B [Example 11]”, the MIC in [1] was 1 µg/mL; in [2] it was 8 µg/mL; in assay [3] it was 4 µg/mL; in assay [4], 8 µg/mL; in assay [5] it was “-- (Compound not active at less than 128 mcg/ml)”; in assay [6], 8 µg/mL. In addition, the MIC is 4 µg/mL in assay [7]; 16 µg/mL in assay [8]; 2 µg/mL in the assay with Streptococcus Group 9960; “-- (Compound not active at less than 128 mcg/ml)” in assay [9]; 1 µg/mL in assay [10]; 4 µg/mL in [11]. In the assay on Staphylococcus aureus, this substance yielded an ED50 of 11.8 mg/kg × 2.
Consider “N--[p-(octyloxy)benzoyl]A47934 [Example 26]”, for which the MIC in assay [1] was 0.5 µg/mL; in assay [2], 0.5 µg/mL; in assay [3], 0.25 µg/mL; in assay [4], 0.125 µg/mL; in assay [5] it was 8 µg/mL; in assay [6] it was 0.25 µg/mL. The MIC in assay [7] worked out at 0.5 µg/mL; in [8], 0.5 µg/mL; in the assay on Streptococcus Group 9960, 1 µg/mL; in assay [9], 4 µg/mL; in [10] it was 0.5 µg/mL; in [11], 0.125 µg/mL. Further, the values for the ED50 with Staphylococcus aureus, with Streptococcus pneumoniae and with Streptococcus pyogenes were 3.6 mg/kg × 2, above 10 mg/kg × 2 and above 10 mg/kg × 2, respectively.
For the substance “N--(3,5-dichlorobenzoyl)A41030A [Example 22]”, the MIC in [1] is 0.5 µg/mL; in assay [2] it was 0.25 µg/mL; in [3], 0.125 µg/mL; in assay [4], 0.125 µg/mL; in assay [5], 16 µg/mL; in assay [6], 0.25 µg/mL. Further, the MIC amounted to 0.5 µg/mL in assay [7]; 0.25 µg/mL in assay [8]; 0.5 µg/mL in the assay with Streptococcus Group 9960; 8 µg/mL in assay [9]; 0.5 µg/mL in assay [10]; 0.125 µg/mL in [11]. For the same substance, the ED50 was below 0.31 mg/kg × 2 in the assay with Staphylococcus aureus, 41 mg/kg × 2 with Streptococcus pneumoniae and above 10 mg/kg × 2 in the assay on Streptococcus pyogenes.
With N--(lauroyl)A41030A [Example 20], the MIC in [1] stood at 1 µg/mL; in assay [2], 1 µg/mL; in assay [3] it was 0.5 µg/mL; in assay [4], 0.5 µg/mL; in [5], 32 µg/mL; in [6] it was 0.5 µg/mL. In addition, the MIC was 0.5 µg/mL in assay [7]; 0.5 µg/mL in assay [8]; 0.5 µg/mL in the assay with Streptococcus Group 9960; 32 µg/mL in assay [9]; 1 µg/mL in [10]; 0.5 µg/mL in [11]. The results for the ED50 in the assay with Staphylococcus aureus, in the assay with Streptococcus pneumoniae and with Streptococcus pyogenes were 0.6 mg/kg × 2, above 10 mg/kg × 2 and above 10 mg/kg × 2, respectively.
As for “N--[p-(octyloxy)benzoyl]A41030A [Example 21]”, the MIC is 2 µg/mL in [1]; 2 µg/mL in assay [2]; 1 µg/mL in assay [3]; 1 µg/mL in [4]; “-- (Compound not active at less than 128 mcg/ml)” in assay [5]; 2 µg/mL in assay [6]. Also, the MIC in assay [7] was 2 µg/mL; in assay [8] it was 1 µg/mL; in the assay on Streptococcus Group 9960, 1 µg/mL; in assay [9], “-- (Compound not active at less than 128 mcg/ml)”; in assay [10] it was 2 µg/mL; in assay [11], 0.5 µg/mL. Moreover, the ED50 in the assay with Staphylococcus aureus is 2.19 mg/kg × 2; in the assay on Streptococcus pneumoniae, above 10 mg/kg × 2; in the assay with Streptococcus pyogenes it was above 10 mg/kg × 2.
For “N--[(1-tetrazole)acetyl]A35512B [Example 10]”, the MIC in assay [1] is 2 µg/mL; in assay [2] it was 8 µg/mL; in [3], 4 µg/mL; in [4] it was 4 µg/mL; in assay [5], “-- (Compound not active at less than 128 mcg/ml)”; in [6] it was 4 µg/mL. Moreover, the MIC in [7] was 8 µg/mL; in assay [8] it was 16 µg/mL; with Streptococcus Group 9960 it was 8 µg/mL; in assay [9], “-- (Compound not active at less than 128 mcg/ml)”; in assay [10], 4 µg/mL; in [11] it was 4 µg/mL. The ED50 in the assay with Staphylococcus aureus amounted to 5.7 mg/kg × 2.
